The assay deals with MAGI-CCR5 HeLa cells, HIV-1 IIIB, beta-gal luminescence, 48 h. Kind of assay: inhibitors of X4-tropic HIV-1 replication, dose response, cell-based, MAGI-CCR5 HeLa, beta-gal luminescence, 2% serum, set 2 (AID 504570).

The source of these data is PubChem BioAssay AID504570 (Southern Research Specialized Biocontainment Screening …, 2011).

SMILES strings stand for the structures.

In the case of `COc1ccc(CCn2c(O)cc3nn(-c4nc5ccccc5s4)c(=O)c-3c2C)cc1`, the IC50 was 11.8 µM.

Regarding `COc1ccccc1Cn1c(O)cc2nn(-c3nc4ccccc4s3)c(=O)c-2c1C`, the IC50 was 26.5 µM.

As to `Cc1c2c(=O)n(-c3nc4ccccc4s3)nc-2cc(O)n1Cc1cccs1`, the IC50 is 11.9 µM.

As for `Cc1c2c(=O)n(-c3nc4ccccc4s3)nc-2cc(O)n1CCc1cccs1`, the half-inhibitory concentration (IC50) is 26 µM.

In the case of `Cc1c2c(=O)n(-c3nc4ccccc4s3)nc-2cc(O)n1Cc1cccnc1`, the IC50 was 7.09 µM.

Consider `COc1ccc(Cn2c(O)cc3nn(-c4nc5ccccc5s4)c(=O)c-3c2C)cc1`, for which the IC50 is 33.6 µM.

`Cc1c2c(=O)n(-c3nc4ccccc4s3)nc-2cc(O)n1CCC(C)C`: the concentration for half-maximal inhibition (IC50) is 5.34 µM.

Regarding `Cc1c2c(=O)n(-c3nc4ccccc4s3)nc-2cc(O)n1C1CC1`, the IC50 is 7.53 µM.

Take `Cc1c2c(=O)n(-c3nc4ccccc4s3)nc-2cc(O)n1Cc1ccccc1Cl`: the half-maximal inhibitory concentration (IC50) was 3.07 µM.

As for `Cc1c2c(=O)n(-c3nc4ccccc4s3)nc-2cc(O)n1Cc1ccc(F)cc1`, the half-inhibitory concentration (IC50) is 3.75 µM.

For `Cc1c2c(=O)n(-c3nc4ccccc4s3)nc-2cc(O)n1CCc1ccc(O)cc1`, the half-maximal inhibitory concentration (IC50) was 25.6 µM.

In the case of `Cc1c2c(=O)n(-c3nc4ccccc4s3)nc-2cc(O)n1Cc1ccncc1`, the IC50 is 14.7 µM.

`Cc1c2c(=O)n(-c3nc4ccccc4s3)nc-2cc(O)n1Cc1ccccc1`: the IC50 was 14.5 µM.
